# US9549932B2, “2-(morpholin-4-yl)-1,7-naphthyridines” (BAYER PHARMA AKTIENGESELLSCHAFT, priority 2014, dated 2017)
# pIC50: −log10 of the molar value.
# Target: full-length human ATR protein (Homo sapiens (Human), UniProt Q13535)
# Assay: Binding assay ATR (TR-FRET tracer displacement)
# Conditions: read-out: ATR binding (tracer A) IC50
# How it was run: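 Full-length human GST-ATR co-purified with ATRIP, pre-complexed 30 min at 22 °C with anti-GST-Tb antibody, then pre-bound with compound 10 min. Tracer A or B added (2 µl of 100 nM solution), 30 min at 22 °C.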
# Sequence of full-length human ATR protein (Q13535 other isoform, or with tags, fused parts or gaps): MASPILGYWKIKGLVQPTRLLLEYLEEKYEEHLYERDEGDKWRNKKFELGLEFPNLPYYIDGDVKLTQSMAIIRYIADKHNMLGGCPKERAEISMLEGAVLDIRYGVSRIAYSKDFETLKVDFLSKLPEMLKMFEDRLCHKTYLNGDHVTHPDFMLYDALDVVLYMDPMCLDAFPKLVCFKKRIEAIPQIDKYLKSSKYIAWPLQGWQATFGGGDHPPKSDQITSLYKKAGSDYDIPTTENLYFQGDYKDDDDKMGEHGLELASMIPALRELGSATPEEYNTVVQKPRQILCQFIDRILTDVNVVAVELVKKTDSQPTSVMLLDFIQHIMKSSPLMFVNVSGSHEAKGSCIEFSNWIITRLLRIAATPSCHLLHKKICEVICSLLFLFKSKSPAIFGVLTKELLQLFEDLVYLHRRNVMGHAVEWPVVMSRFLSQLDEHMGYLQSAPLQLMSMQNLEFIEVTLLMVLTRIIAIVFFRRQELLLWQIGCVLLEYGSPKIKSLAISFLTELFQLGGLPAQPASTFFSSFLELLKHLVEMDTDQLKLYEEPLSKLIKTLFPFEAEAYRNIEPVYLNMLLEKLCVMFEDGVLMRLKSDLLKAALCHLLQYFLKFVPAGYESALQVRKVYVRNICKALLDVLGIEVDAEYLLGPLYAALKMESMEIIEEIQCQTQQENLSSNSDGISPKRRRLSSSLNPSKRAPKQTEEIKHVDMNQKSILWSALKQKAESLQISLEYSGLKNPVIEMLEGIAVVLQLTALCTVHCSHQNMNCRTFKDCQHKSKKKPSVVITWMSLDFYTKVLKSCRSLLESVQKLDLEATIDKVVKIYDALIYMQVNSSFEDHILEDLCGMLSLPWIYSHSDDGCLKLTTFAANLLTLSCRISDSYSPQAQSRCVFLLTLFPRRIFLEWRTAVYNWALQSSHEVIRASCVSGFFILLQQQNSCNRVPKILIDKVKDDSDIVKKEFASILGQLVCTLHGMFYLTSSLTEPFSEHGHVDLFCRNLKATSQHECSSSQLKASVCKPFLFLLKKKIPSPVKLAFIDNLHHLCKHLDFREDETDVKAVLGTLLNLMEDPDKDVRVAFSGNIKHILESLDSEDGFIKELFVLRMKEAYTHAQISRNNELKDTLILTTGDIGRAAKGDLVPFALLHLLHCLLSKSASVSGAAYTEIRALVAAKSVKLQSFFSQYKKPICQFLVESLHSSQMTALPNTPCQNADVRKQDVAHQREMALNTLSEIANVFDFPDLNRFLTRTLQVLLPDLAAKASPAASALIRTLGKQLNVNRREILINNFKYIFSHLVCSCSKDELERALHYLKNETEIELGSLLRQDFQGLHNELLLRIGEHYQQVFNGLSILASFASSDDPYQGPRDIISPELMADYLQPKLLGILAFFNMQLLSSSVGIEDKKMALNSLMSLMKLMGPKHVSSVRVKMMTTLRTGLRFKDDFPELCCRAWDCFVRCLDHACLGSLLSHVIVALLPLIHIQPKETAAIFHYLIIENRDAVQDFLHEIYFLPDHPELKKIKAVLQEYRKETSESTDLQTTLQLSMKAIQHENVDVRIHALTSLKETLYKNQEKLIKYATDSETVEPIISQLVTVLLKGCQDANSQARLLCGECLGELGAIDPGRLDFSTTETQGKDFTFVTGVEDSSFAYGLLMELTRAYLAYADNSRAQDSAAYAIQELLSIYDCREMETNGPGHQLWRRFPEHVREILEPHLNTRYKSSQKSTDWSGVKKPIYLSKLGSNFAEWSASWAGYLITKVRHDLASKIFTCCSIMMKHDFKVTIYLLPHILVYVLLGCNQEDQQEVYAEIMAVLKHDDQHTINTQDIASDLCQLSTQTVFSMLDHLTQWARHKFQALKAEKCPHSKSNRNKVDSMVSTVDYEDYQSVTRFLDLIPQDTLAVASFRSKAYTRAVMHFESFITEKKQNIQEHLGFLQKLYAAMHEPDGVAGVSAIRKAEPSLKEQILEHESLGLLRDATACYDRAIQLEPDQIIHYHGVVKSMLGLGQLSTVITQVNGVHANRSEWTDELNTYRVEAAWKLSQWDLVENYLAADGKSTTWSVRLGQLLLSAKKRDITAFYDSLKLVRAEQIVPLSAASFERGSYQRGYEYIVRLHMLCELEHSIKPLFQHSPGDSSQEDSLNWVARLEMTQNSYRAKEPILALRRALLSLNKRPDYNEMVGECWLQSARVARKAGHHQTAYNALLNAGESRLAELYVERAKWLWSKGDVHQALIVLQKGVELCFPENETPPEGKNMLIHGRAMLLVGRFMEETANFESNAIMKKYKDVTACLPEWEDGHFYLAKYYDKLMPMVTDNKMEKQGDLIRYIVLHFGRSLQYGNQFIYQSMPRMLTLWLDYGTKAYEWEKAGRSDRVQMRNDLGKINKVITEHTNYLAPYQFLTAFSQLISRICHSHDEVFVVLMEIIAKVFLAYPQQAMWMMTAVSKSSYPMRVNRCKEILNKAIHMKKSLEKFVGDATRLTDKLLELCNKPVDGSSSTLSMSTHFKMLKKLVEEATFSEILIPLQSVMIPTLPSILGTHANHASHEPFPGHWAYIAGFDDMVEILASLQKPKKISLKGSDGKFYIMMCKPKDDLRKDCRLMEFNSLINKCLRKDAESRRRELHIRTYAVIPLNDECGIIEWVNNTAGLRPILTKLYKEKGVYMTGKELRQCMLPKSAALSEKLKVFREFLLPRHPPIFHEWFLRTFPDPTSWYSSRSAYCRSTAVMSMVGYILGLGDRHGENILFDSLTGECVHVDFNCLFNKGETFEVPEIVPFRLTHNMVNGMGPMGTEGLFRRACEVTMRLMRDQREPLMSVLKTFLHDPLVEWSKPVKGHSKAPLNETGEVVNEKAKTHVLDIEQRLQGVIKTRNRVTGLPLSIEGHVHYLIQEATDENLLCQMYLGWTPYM
# Sequence of full-length human ATR protein (Q8WXE1 other isoform, or with tags, fused parts or gaps partner): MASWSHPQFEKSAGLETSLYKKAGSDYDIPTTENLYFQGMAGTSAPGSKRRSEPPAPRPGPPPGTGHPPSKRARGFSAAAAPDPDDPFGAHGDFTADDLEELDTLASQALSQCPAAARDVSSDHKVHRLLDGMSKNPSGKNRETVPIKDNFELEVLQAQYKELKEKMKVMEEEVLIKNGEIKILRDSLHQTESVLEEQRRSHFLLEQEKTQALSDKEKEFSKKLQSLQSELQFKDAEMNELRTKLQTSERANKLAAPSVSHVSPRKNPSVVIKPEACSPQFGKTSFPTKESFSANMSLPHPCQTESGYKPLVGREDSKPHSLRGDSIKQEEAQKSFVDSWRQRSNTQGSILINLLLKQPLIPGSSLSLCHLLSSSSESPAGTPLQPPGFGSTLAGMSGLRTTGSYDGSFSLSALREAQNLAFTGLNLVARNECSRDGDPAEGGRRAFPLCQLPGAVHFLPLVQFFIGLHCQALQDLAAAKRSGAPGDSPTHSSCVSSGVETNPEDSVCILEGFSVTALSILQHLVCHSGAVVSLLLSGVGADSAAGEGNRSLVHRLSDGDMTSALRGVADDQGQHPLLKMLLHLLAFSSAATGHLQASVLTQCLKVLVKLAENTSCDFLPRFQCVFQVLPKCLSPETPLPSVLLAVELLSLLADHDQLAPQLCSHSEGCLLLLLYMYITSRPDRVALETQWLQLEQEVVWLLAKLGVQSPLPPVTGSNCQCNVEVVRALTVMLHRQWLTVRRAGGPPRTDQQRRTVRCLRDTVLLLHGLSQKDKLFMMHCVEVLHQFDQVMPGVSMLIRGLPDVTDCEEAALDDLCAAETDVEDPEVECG
row,SMILES,pIC50
1,"COP(=O)(O)c1ccc(-c2cc(N3CCOCC3)nc3c(-c4ccn[nH]4)nccc23)cc1 [Example 181, Methyl hydrogen {4-[2-(morpholin-4-yl)-8-(1H-pyrazol-5-yl)-1,7-naphthyridin-4-yl]phenyl}phosphonate]",6.27

# Same assay, conditions: tracer A, TR-FRET; read-out: ATR binding (tracer A) IC50
row,SMILES,pIC50
1,"c1cc(-c2cc(N3CCOCC3)nc3c(-c4ccn[nH]4)nccc23)c2cc[nH]c2c1 [Example 294, 4-(1H-indo1-4-yl)-2-(morpholin-4-yl)-8-(1H-pyrazol-5-yl)-1,7-naphthyridine]",7.43
2,"OCC1CCN(c2cc(N3CCOCC3)nc3c(-c4ccn[nH]4)nccc23)CC1 [Example 429, {1-[2-(morpholin-4-yl)-8-(1H-pyrazol-5-yl)-1,7-naphthyridin-4-yl]piperidin-4-yl}methanol]",7.35
3,"C[C@@H]1COCCN1c1cc(-c2cc(Cl)cnc2F)c2ccnc(-c3ccn[nH]3)c2n1 [Example 229, 4-(5-chloro-2-fluoropyridin-3-yl)-2-[(3R)-3-methylmorpholin-4-yl]-8-(1H-pyrazol-5-yl)-1,7-naphthyridine]",7.55
4,"CC(C)C(C)(O)c1cc(N2CCOC[C@H]2C)nc2c(-c3ccn[nH]3)nccc12 (stereo partly drawn) [Example 281, 3-methyl-2-{2-[(3R)-3-methylmorpholin-4-yl]-8-(1H-pyrazol-5-yl)-1,7-naphthyridin-4-yl}butan-2-ol]",7.87
5,"COC(=O)c1cc(-c2cc(N3CCOCC3)nc3c(-c4ccn[nH]4)nccc23)cs1 [Example 403, methyl 4-[2-(morpholin-4-yl)-8-(1H-pyrazol-5-yl)-1,7-naphthyridin-4-yl]thiophene-2-carboxylate]",6.71
6,"C[C@@H]1COCCN1c1cc(-c2ccns2)c2ccnc(-c3ccn[nH]3)c2n1 [Example 121, 2-[(3R)-3-methylmorpholin-4-yl]-8-(1H-pyrazol-5-yl)-4-(1,2-thiazol-5-yl)-1,7-naphthyridine]",7.76
7,"Clc1cc(Cl)cc(-c2cc(N3CCOCC3)nc3c(-c4ccn[nH]4)nccc23)c1 [Example 344, 4-(3,5-dichlorophenyl)-2-(morpholin-4-yl)-8-(1H-pyrazol-5-yl)-1,7-naphthyridine]",6.76
8,"C[C@@H]1COCCN1c1cc(-c2ccc(N3CCNCC3)cc2F)c2ccnc(-c3ccn[nH]3)c2n1 [Example 81, 4-[2-fluoro-4-(piperazin-1-yl)phenyl]-2-[(3R)-3-methylmorpholin-4-yl]-8-(1H-pyrazol-5-yl)-1,7-naphthyridine]",7.84
9,"CS(=O)(=O)N1CCN(c2cc(N3CCOCC3)nc3c(-c4ccn[nH]4)nccc23)CC1 [Example 434, 4-[4-(methylsulfonyl)piperazin-1-yl]-2-(morpholin-4-yl)-8-(1H-pyrazol-5-yl)-1,7-naphthyridine]",7.50
10,"C[C@@H]1COCCN1c1cc(-c2sccc2Cl)c2ccnc(-c3ccn[nH]3)c2n1 [Example 102, 4-(3-chloro-2-thienyl)-2-[(3R)-3-methylmorpholin-4-yl]-8-(1H-pyrazol-5-yl)-1,7-naphthyridine]",7.91
11,"Cc1c(-c2cc(N3CCOC[C@H]3C)nc3c(-c4ccn[nH]4)nccc23)cnn1C [Example 250, 4-(1,5-dimethyl-1H-pyrazol-4-yl)-2-[(3R)-3-methylmorpholin-4-yl]-8-(1H-pyrazol-5-yl)-1,7-naphthyridine]",8.18
12,"C[C@@H]1COCCN1c1cc(-c2cn[nH]c2)c2ccnc(-c3ccn[nH]3)c2n1 [Example 269, 2-[(3R)-3-methylmorpholin-4-yl]-4-(1H-pyrazol-4-yl)-8-(1H-pyrazol-5-yl)-1,7-naphthyridine]",7.90
13,"Cc1ccc(C)c(-c2cc(N3CCOCC3)nc3c(-c4ccn[nH]4)nccc23)c1 [Example 334, 4-(2,5-dimethylphenyl)-2-(morpholin-4-yl)-8-(1H-pyrazol-5-yl)-1,7-naphthyridine]",7.24
14,"FC(F)(F)c1ccccc1-c1cc(N2CCOCC2)nc2c(-c3ccn[nH]3)nccc12 [Example 301, 2-(morpholin-4-yl)-8-(1H-pyrazol-5-yl)-4-[2-(trifluoromethyl)phenyl]-1,7-naphthyridine]",7.67
15,"c1ccc2c(c1)CCCN2c1cc(N2CCOCC2)nc2c(-c3ccn[nH]3)nccc12 [Example 418, 4-(3,4-dihydroquinolin-1(2H)-yl)-2-(morpholin-4-yl)-8-(1H-pyrazol-5-yl)-1,7-naphthyridine]",7.03
16,"Cc1nc(S(C)(=O)=O)ccc1-c1cc(N2CCOC[C@H]2C)nc2c(-c3ccn[nH]3)nccc12 [Example 73, 4-[2-methyl-6-(methylsulfonyl)pyridin-3-yl]-2-[(3R)-3-methylmorpholin-4-yl]-8-(1H-pyrazol-5-yl)-1,7-naphthyridine]",8.17
17,"c1cc(-c2cc(N3CCOCC3)nc3c(-c4ccn[nH]4)nccc23)c2ccncc2c1 [Example 397, 4-(isoquinolin-5-yl)-2-(morpholin-4-yl)-8-(1H-pyrazol-5-yl)-1,7-naphthyridine]",7.02
18,"Cc1cn[nH]c1-c1cc(N2CCOC[C@H]2C)nc2c(-c3ccn[nH]3)nccc12 [Example 149, 2-[(3R)-3-methylmorpholin-4-yl]-4-(4-methyl-1H-pyrazol-5-yl)-8-(1H-pyrazol-5-yl)-1,7-naphthyridine]",7.32

row,SMILES,pIC50
1,"CCCn1nccc1-c1cc(N2CCOC[C@H]2C)nc2c(-c3ccn[nH]3)nccc12 [Example 117, 2-[(3R)-3-methylmorpholin-4-yl]-4-(1-propyl-1H-pyrazol-5-yl)-8-(1H-pyrazol-5-yl)-1,7-naphthyridine]",8.09
2,"Cc1cc(-c2cc(N3CCOC[C@H]3C)nc3c(-c4ccn[nH]4)nccc23)c(C)s1 [Example 240, 4-(2,5-dimethylthiophen-3-yl)-2-[(3R)-3-methylmorpholin-4-yl]-8-(1H-pyrazol-5-yl)-1,7-naphthyridine]",7.52
3,"O=C1OCCC1Oc1cc(N2CCOCC2)nc2c(-c3ccn[nH]3)nccc12 (stereo not drawn) [Example 47, 3-{[2-(morpholin-4-yl)-8-(1H-pyrazol-5-yl)-1,7-naphthyridin-4-yl]oxy}dihydrofuran-2(3H)-one]",5.86
4,"COc1ccc(F)c(-c2cc(N3CCOCC3)nc3c(-c4ccn[nH]4)nccc23)c1 [Example 338, 4-(2-fluoro-5-methoxyphenyl)-2-(morpholin-4-yl)-8-(1H-pyrazol-5-yl)-1,7-naphthyridine]",6.99
5,"Fc1cccc(-c2cc(N3CCOCC3)nc3c(-c4ccn[nH]4)nccc23)c1F [Example 341, 4-(2,3-difluorophenyl)-2-(morpholin-4-yl)-8-(1H-pyrazol-5-yl)-1,7-naphthyridine]",7.58
6,"C[C@@H]1COCCN1c1cc(C2CCSCC2)c2ccnc(-c3ccn[nH]3)c2n1 [Example 241, 2-[(3R)-3-methylmorpholin-4-yl]-8-(1H-pyrazol-5-yl)-4-(tetrahydro-2H-thiopyran-4-yl)-1,7-naphthyridine]",8.39
7,"COc1ccc(-c2cc(N3CCOC[C@H]3C)nc3c(-c4ccn[nH]4)nccc23)cn1 [Example 95, 4-(6-methoxypyridin-3-yl)-2-[(3R)-3-methylmorpholin-4-yl]-8-(1H-pyrazol-5-yl)-1,7-naphthyridine]",7.95
8,"C[C@@H]1COCCN1c1cc(-c2cccc(F)c2F)c2ccnc(-c3ccn[nH]3)c2n1 [Example 72, 4-(2,3-difluorophenyl)-2-[(3R)-3-methylmorpholin-4-yl]-8-(1H-pyrazol-5-yl)-1,7-naphthyridine]",8.20
9,"C[C@@H]1COCCN1c1cc(OCCNC(=O)OC(C)(C)C)c2ccnc(-c3ccn[nH]3)c2n1 [Example 56, Tert-butyl [2-({2-[(3R)-3-methylmorpholin-4-yl]-8-(1H-pyrazol-5-yl)-1,7-naphthyridin-4-yl}oxy)ethyl]carbamate]",6.12
10,"CC(C)COP(C)(=O)c1cc(N2CCOC[C@H]2C)nc2c(-c3ccn[nH]3)nccc12 (stereo partly drawn) [Example 127, Isobutyl methyl{2-[(3R)-3-methylmorpholin-4-yl]-8-(1H-pyrazol-5-yl)-1,7-naphthyridin-4-yl}phosphinate]",7.59
11,"c1cc(-c2nccc3c(N4CCCCCC4)cc(N4CCOCC4)nc23)[nH]n1 [Example 413, 4-(azepan-1-yl)-2-(morpholin-4-yl)-8-(1H-pyrazol-5-yl)-1,7-naphthyridine]",6.55
12,"C[C@@H]1COCCN1c1cc(-c2ccccc2)c2ccnc(-c3cc[nH]n3)c2n1 [Example 27, 2-((R)-3-methylmorpholin-4-yl)-4-phenyl-8-(2H-pyrazol-3-yl)-[1,7]naphthyridine]",7.76
13,"COC1CCN(c2cc(N3CCOCC3)nc3c(-c4ccn[nH]4)nccc23)CC1 [Example 430, 4-(4-methoxypiperidin-1-yl)-2-(morpholin-4-yl)-8-(1H-pyrazol-5-yl)-1,7-naphthyridine]",7.21
14,"FC1CCCN(c2cc(N3CCOCC3)nc3c(-c4ccn[nH]4)nccc23)C1 (stereo not drawn) [Example 426, 4-(3-fluoropiperidin-1-yl)-2-(morpholin-4-yl)-8-(1H-pyrazol-5-yl)-1,7-naphthyridine]",6.80
15,"Cc1cc(-c2cc(N3CCOC[C@H]3C)nc3c(-c4ccn[nH]4)nccc23)c(C)n1C [Example 264, 2-[(3R)-3-methylmorpholin-4-yl]-8-(1H-pyrazol-5-yl)-4-(1,2,5-trimethyl-1H-pyrrol-3-yl)-1,7-naphthyridine]",7.59
16,"Cc1nn(C)cc1-c1cc(N2CCOC[C@H]2C)nc2c(-c3ccn[nH]3)nccc12 [Example 249, 4-(1,3-dimethyl-1H-pyrazol-4-yl)-2-[(3R)-3-methylmorpholin-4-yl]-8-(1H-pyrazol-5-yl)-1,7-naphthyridine]",7.86
17,"CS(=O)(=O)c1ccc(-c2cc(N3CCOCC3)nc3c(-c4ccn[nH]4)nccc23)c(F)c1 [Example 24, 4-[2-fluoro-4-(methylsulfonyl)phenyl]-2-(morpholin-4-yl)-8-(1H-pyrazol-5-yl)-1,7-naphthyridine]",7.42

# Same assay, conditions: tracer B, TR-FRET; read-out: ATR binding (tracer B) IC50
row,SMILES,pIC50
1,"C[C@@H]1COCCN1c1cc(OCCNC(=O)OC(C)(C)C)c2ccnc(-c3ccn[nH]3)c2n1 [Example 56, Tert-butyl [2-({2-[(3R)-3-methylmorpholin-4-yl]-8-(1H-pyrazol-5-yl)-1,7-naphthyridin-4-yl}oxy)ethyl]carbamate]",6.49
2,"C[C@@H]1COCCN1c1cc(-c2ccccc2)c2ccnc(-c3cc[nH]n3)c2n1 [Example 27, 2-((R)-3-methylmorpholin-4-yl)-4-phenyl-8-(2H-pyrazol-3-yl)-[1,7]naphthyridine]",7.96
3,"CS(=O)(=O)c1ccc(-c2cc(N3CCOCC3)nc3c(-c4ccn[nH]4)nccc23)c(F)c1 [Example 24, 4-[2-fluoro-4-(methylsulfonyl)phenyl]-2-(morpholin-4-yl)-8-(1H-pyrazol-5-yl)-1,7-naphthyridine]",7.68
